From PMC11661628, “Cannabis sativa extracts inhibit LDL oxidation and the formation of foam cells in vitro, acting as potential multi-step inhibitors of atherosclerosis development” (PLOS ONE, 2024)
“And” between values parts separate entries of the source, which are not always exact repeats. Equal entries are not always repeated. Where two headings read alike, the source gives them in different places.

Key:
J774.1 cells [1] = test: Quantitation of oxLDL endocytosis (DiI-oxLDL spectrofluorometry); assay type: cell-based, murine; conditions: for effect on oxLDL uptake by the cells (dose-response, Fig 4) / ED50: DiI-oxLDL 10 μg mL^-1, 24 h; for ED50: oxLDL internalization, NE non-effective; for effect of Ca2+ chelation on DiI-oxLDL internalized: BAPTA-AM 5–20 μM, EGTA 4 mM (S8 Fig)
J774.1 cells [2] = test: Cellular toxicity, MTT reduction; conditions: 24 h; for effect on cell viability and metabolism (MTT): explored range 3–30 μM; for LD50: MTT viability curves
Description: Cell viability was determined by the mitochondrial-dependent reduction of 3-[4,5-dimethylthiazole-2-yl]-2,5-diphenyltetrazolium bromide (MTT, Merck KGaA) to formazan. […] A control condition with vehicle alone (0.2% DMSO) was also added to each experiment. The medium was replaced with DMEM containing MTT (0.1 mg mL^-1) and the cells were incubated at 37° C for 4 h. After removing the media, formazan crystals were dissolved in DMSO, and the absorbance was registered using the Varioskan plate reader at 560 nm. […] Therapeutic indexes (TI) were calculated as the ratios between the […].

LDL = test system: LDL; parameters: method as in PMID 33123676; conditions: already described; cited from earlier work
CB1 = conditions: cited from earlier work
CB2 = conditions: cited from earlier work
GPR55 = conditions: cited from earlier work
TRPV4 = conditions: read-out: Ki TRPV4; cited from earlier work
human TRPV1 = test system: human TRPV1; parameters: method as in PMID 15615864; conditions: cited from earlier work
rat TRPV1 = test system: rat TRPV1; parameters: method as in PMID 15615864; conditions: cited from earlier work
TRPV1 = conditions: cited from earlier work
[3] = Fig 4, 0.28 µM, 24 h, replicates n=1-3
[4] = Fig 4, 1.39 µM, 24 h, replicates n=1-3
[5] = Fig 4, 2.79 µM, 24 h, replicates n=1-3
[6] = Fig 4, 8.37 µM, 24 h, replicates n=1-3
[7] = Fig 4, 13.95 µM, 24 h, replicates n=1-3
[8] = Fig 4, 0.32 µM, 24 h, replicates n=1-3
[9] = Fig 4, 1.59 µM, 24 h, replicates n=1-3
[10] = Fig 4, 3.18 µM, 24 h, replicates n=1-3
[11] = Fig 4, 12.72 µM, 24 h, replicates n=1-3
[12] = S2 Table, ref THC [1–5], CBD [3–6], AEA [2,3,5,8,9], AM251 [5,10–16], AM630 [14,15,17,18], ML184 [22–24], CID16020046 [25], read-out: Ki or IC50, GPR55
[13] = Fig 5 A-C, antagonist alone 5 µM, 24 h, replicates n=1-3

CCCCCc1cc2c(c(O)c1C(=O)O)C1C=C(C)CCC1C(C)(C)O2 (stereo not drawn) [THCA, Δ^9-tetrahydrocannabinolic acid]
effect on oxLDL uptake by the cells (dose-response, Fig 4) (J774.1 cells [1]): inhibited oxLDL endocytosis | DiI-oxLDL (J774.1 cells [1]; [3]): 5.657 µg/mL and 5.8008 µg/mL and 5.782 µg/mL | µg DiI-oxLDL/mg protein (J774.1 cells [1]; [3]): 10.7513 µg DiI-oxLDL/mg protein and 10.8025 µg DiI-oxLDL/mg protein and 11.0708 µg DiI-oxLDL/mg protein | DiI-oxLDL (J774.1 cells [1]; [4]): 5.437 µg/mL and 5.452 µg/mL and 5.506 µg/mL | µg DiI-oxLDL/mg protein (J774.1 cells [1]; [4]): 9.919 µg DiI-oxLDL/mg protein and 9.956 µg DiI-oxLDL/mg protein and 10.007 µg DiI-oxLDL/mg protein | DiI-oxLDL (J774.1 cells [1]; [5]): 5.849 µg/mL and 5.071 µg/mL and 5.133 µg/mL | µg DiI-oxLDL/mg protein (J774.1 cells [1]; [5]): 9.9098 µg DiI-oxLDL/mg protein and 9.139 µg DiI-oxLDL/mg protein and 9.494 µg DiI-oxLDL/mg protein | DiI-oxLDL (J774.1 cells [1]; [6]): 3.515 µg/mL and 3.542 µg/mL and 3.49 µg/mL | µg DiI-oxLDL/mg protein (J774.1 cells [1]; [6]): 6.46 µg DiI-oxLDL/mg protein and 6.3952 µg DiI-oxLDL/mg protein and 6.189 µg DiI-oxLDL/mg protein | DiI-oxLDL (J774.1 cells [1]; [7]): 2.689 µg/mL and 2.817 µg/mL and 2.8328 µg/mL | µg DiI-oxLDL/mg protein (J774.1 cells [1]; [7]): 4.86 µg DiI-oxLDL/mg protein and 5.27 µg DiI-oxLDL/mg protein and 5.206 µg DiI-oxLDL/mg protein | ED50 (J774.1 cells [1]): 12000 ± 1000 nM | effect on cell viability and metabolism (MTT) (J774.1 cells [2]): no effect | protection of LDL from oxidation (LDL): lack of protection | Ki (CB1): 1290 nM | Ki (CB2): 1650 nM

COc1cc(CNC(=O)CCCCC=CC(C)C)ccc1O [Capsaicin, 8-methyl-N-vanillyl-6-nonenamide]
increase of DiI-oxLDL uptake (J774.1 cells [1]; agonist 50 μM, 6 h, absence of extracts): ~ 15%

CCCCCc1cc(O)c2c(c1)OC(C)(C)[C@@H]1CCC(C)=C[C@@H]21 [THC, Δ^9-tetrahydrocannabinol]
DiI-oxLDL (J774.1 cells [1]): 4.013 µg/mL and 4.084 µg/mL and 4.342 µg/mL | µg DiI-oxLDL/mg protein (J774.1 cells [1]): 10.0784 µg DiI-oxLDL/mg protein and 9.298 µg DiI-oxLDL/mg protein and 9.028 µg DiI-oxLDL/mg protein | effect on oxLDL uptake by the cells (dose-response, Fig 4) (J774.1 cells [1]): inhibited oxLDL endocytosis | DiI-oxLDL (J774.1 cells [1]; [8]): 5.502 µg/mL and 5.314 µg/mL and 5.656 µg/mL | µg DiI-oxLDL/mg protein (J774.1 cells [1]; [8]): 13.3989 µg DiI-oxLDL/mg protein and 14.1131 µg DiI-oxLDL/mg protein and 13.7901 µg DiI-oxLDL/mg protein | DiI-oxLDL (J774.1 cells [1]; [9]): 5.307 µg/mL and 5.178 µg/mL and 5.296 µg/mL | µg DiI-oxLDL/mg protein (J774.1 cells [1]; [9]): 12.9859 µg DiI-oxLDL/mg protein and 12.4983 µg DiI-oxLDL/mg protein and 12.6611 µg DiI-oxLDL/mg protein | DiI-oxLDL (J774.1 cells [1]; [10]): 4.772 µg/mL and 4.841 µg/mL and 4.891 µg/mL | µg DiI-oxLDL/mg protein (J774.1 cells [1]; [10]): 12.1912 µg DiI-oxLDL/mg protein and 12.4565 µg DiI-oxLDL/mg protein and 12.6501 µg DiI-oxLDL/mg protein | DiI-oxLDL (J774.1 cells [1]; [11]): 2.336 µg/mL and 2.309 µg/mL and 2.423 µg/mL | µg DiI-oxLDL/mg protein (J774.1 cells [1]; [11]): 6.7266 µg DiI-oxLDL/mg protein and 6.397 µg DiI-oxLDL/mg protein and 6.486 µg DiI-oxLDL/mg protein | ED50 (J774.1 cells [1]): 11000 ± 1000 nM | LD50 (J774.1 cells [2]): 20 ± 1 µM | protection of LDL from oxidation (LDL): protection | Ki (GPR55; [12]): 8 to 8.9 nM

CC(=O)OCOC(=O)CN(CC(=O)OCOC(C)=O)c1ccccc1OCCOc1ccccc1N(CC(=O)OCOC(C)=O)CC(=O)OCOC(C)=O [BAPTA-2AM]
effect of Ca2+ chelation on DiI-oxLDL internalized (J774.1 cells [1]; 6 h): very considerable impact

C=C(C)[C@@H]1CCC(C)=C[C@H]1c1c(O)cc(CCCCC)c(C(=O)O)c1O [CBDA, cannabidiolic acid]
effect on oxLDL uptake by the cells (dose-response, Fig 4) (J774.1 cells [1]): inhibited oxLDL endocytosis | ED50 (J774.1 cells [1]): 18000 ± 3000 nM | LD50 (J774.1 cells [2]): > 40 µM | effect on cell viability and metabolism (MTT) (J774.1 cells [2]): no effect | protection of LDL from oxidation (LDL): lack of protection | Ki (CB1): 626 nM | Ki (CB2): 813 nM

COc1ccc(C(=O)c2c(C)n(CCN3CCOCC3)c3cc(I)ccc23)cc1 [AM630]
effect of the antagonist on the inhibition of oxLDL uptake by the extracts (J774.1 cells [1]): unable to counteract the inhibitory effect | DiI-oxLDL (J774.1 cells [1]; [13]): 5.170 µg/mL and 6.331 µg/mL and 3.777 µg/mL | µg DiI-oxLDL/mg protein (J774.1 cells [1]; [13]): 10.904 µg DiI-oxLDL/mg protein and 13.538 µg DiI-oxLDL/mg protein and 10.952 µg DiI-oxLDL/mg protein | Ki (GPR55; [12]): 1500 nM | Ki (CB2; read-out: Ki CB2): 31 nM

CC(C)C[C@H](NC(=O)c1cc2ccccc2s1)C(=O)N1CCN(C(=O)[C@H](CO)NS(=O)(=O)c2ccc(Cl)cc2Cl)CC1 [GSK1016790A, N-[(1S)-1-[[4-[(2S)-2-[[(2,4-dichlorophenyl)sulfonyl]amine]-3-hydroxy-1-oxopropyl]-1-piperazinyl]carbonyl]-3-methylbutyl]benzo [b]thiophene-2-carboxamide]
increase of DiI-oxLDL uptake (J774.1 cells [1]): ~ 30% | Ki (TRPV4): 5 nM

Cc1ccc(-c2n[nH]c3c2C(c2cccc(O)c2)N(c2ccc(C(=O)O)cc2)C3=O)cc1 (stereo not drawn) [CID16020046, 4-[4,6-dihydro-4-(3-hydroxyphenyl)-3-(4-methylphenyl)-6-oxopyrrolo[3,4-c]pyrazol-5(1H)-yl]benzoic acid]
effect of the antagonist on DiI-oxLDL uptake (J774.1 cells [1]): did not affect DiI-oxLDL uptake

CC(C)(C)c1ccc(/C=C/C(=O)Nc2ccc3c(c2)OCCO3)cc1 [AMG9810, 2E-N-(2,3-dihydro-1,4-benzodioxin-6-yl)-3-[4-(1,1-dimethylethyl)phenyl]-2-propenamide]
effect of the antagonist on DiI-oxLDL uptake (J774.1 cells [1]): significant inhibition of DiI-oxLDL uptake | IC50 (human TRPV1): 24.5 nM | IC50 (rat TRPV1): 85.6 nM

CCCCC/C=C\C/C=C\C/C=C\C/C=C\CCCC(=O)NCCO [AEA, N-arachidonoylethanolamine]
effect on oxLDL uptake by the cells (dose-response, Fig 4) (J774.1 cells [1]): unable to prevent the uptake of oxLDL | Ki (CB1): 31 to 252 nM | Ki (TRPV1): 270 nM

Cc1cccc(N2CCN(C(=O)c3cc(S(=O)(=O)N(C)C)ccc3N3CCCC3)CC2)c1C [ML184, 3-[[4-(2,3-dimethylphenyl)-1-piperazinyl]carbonyl]-N,N-dimethyl-4-(1-pyrrolidinyl) benzenesulfonamide]
DiI-oxLDL (J774.1 cells [1]): 0.641 µg/mL and 0.711 µg/mL and 0.735 µg/mL | increase of DiI-oxLDL uptake (J774.1 cells [1]): ~ 15% | µg DiI-oxLDL/mg protein (J774.1 cells [1]): 1.308 µg DiI-oxLDL/mg protein and 1.400 µg DiI-oxLDL/mg protein and 1.366 µg DiI-oxLDL/mg protein | Ki (GPR55; read-out: Ki GPR55): 260 nM | Ki (CB1): > 32000 nM | Ki (CB2): > 32000 nM

O=C(O)CN(CCOCCOCCN(CC(=O)O)CC(=O)O)CC(=O)O [EGTA]
effect of Ca2+ chelation on DiI-oxLDL internalized (J774.1 cells [1]; 6 h): negligible

Cc1c(C(=O)NN2CCCCC2)nn(-c2ccc(Cl)cc2Cl)c1-c1ccc(I)cc1 [AM251, 1-(2,4-Dichlorophenyl)-5-(4-iodophenyl)-4-methyl-N-1-piperidinyl-1H-pyrazole-3-carboxamide]
Ki (CB2): 124 nM

C=C(C)[C@@H]1CCC(C)=C[C@H]1c1c(O)cc(CCCCC)cc1O [CBD, cannabidiol]
effect on oxLDL uptake by the cells (dose-response, Fig 4) (J774.1 cells [1]): inhibited oxLDL endocytosis | ED50 (J774.1 cells [1]): 25000 ± 5000 nM | LD50 (J774.1 cells [2]): 23 ± 1 µM | protection of LDL from oxidation (LDL): lack of protection | Ki (GPR55; [12]): 354 nM

Cc1c(C(=O)Nc2cccc(C(F)(F)F)c2)cc(-c2ccccc2)n1CCCN1CCOCC1 [HC067047, 2-methyl-1-(3-morpholin-4-ylpropyl)-5-phenyl-N -[3-(trifluoromethyl)phenyl]pyrrole-3-carboxamide]
effect of the antagonist on DiI-oxLDL uptake (J774.1 cells [1]): did not affect DiI-oxLDL uptake | Ki (TRPV4): 17 to 133 nM
